Reference: patent US20260001888A1, “PYRAZOLOPYRIMIDINE PDE9 INHIBITORS” (Merck Sharp & Dohme LLC, priority 2018, published 2026)
pKi: −log10 of the molar value.

These compounds were tested against Human PDE9 (PDE9A2) (Homo sapiens (Human), UniProt O76083) (assay: PDE9 IMAP fluorescence polarization (FP) inhibition assay). Settings: apparent inhibition constant; human PDE9A2, FAM-cGMP substrate 50 nM, room temperature.
Type: biochemical
Procedure: The activity of the compounds in accordance with the present invention as PDE9 inhibitors may be readily determined without undue experimentation using a fluorescence polarization (FP) methodology that is well known in the art (Huang, W., et al., J. Biomol Screen, 2002, 7:215).
In a typical experiment the PDE9 inhibitory activity of the compounds of the present invention was determined in accordance with the following experimental method.
Human PDE9 (PDE9A2, GenBank Accession No. NM_001001567), full length with N-terminal GST tag, was purchased from BPS Bioscience. The fluorescence polarization assay for cyclic nucleotide phosphodiesterases was performed using an IMAP® FP kit supplied by Molecular Devices, Sunnyvale, CA (product #R8139). IMAP® technology has been applied previously to phosphodiesterase assays (Huang, W., et al., J. Biomol Screen, 2002, 7:215). Assays were performed at room temperature in 384-well microtiter plates with an incubation volume of 20.2 μL. Solutions of test compounds were prepared in DMSO and serially diluted with DMSO to yield 8 μL of each of 10 solutions differing by 3-fold in concentration, at 32 serial dilutions per plate. 100% inhibition is determined using a known PDE9 inhibitor, such as 1-(2-chlorophenyl)-6-[(2R)-3,3,3-trifluoro-2-methylpropyl]-1,5-dihydro-4H-pyrazolo[3,4-d]pyrimidine-4-one (BAY 73-6691) (Wunder et al, Mol. Pharmacol., 2005, 68 (6): 1775-81), (6-[(3S,4S)-4-methyl-1-(pyrimidin-2-ylmethyl) pyrrolidin-3-yl]-1-(tetrahydro-2H-pyran-4-yl)-1,5-dihydro-4H-pyrazolo[3,4-d]pyrimidin-4-one (PF-04447943) (Wager et al., ACS Chemical Neuroscience, 2010, 1:435-449). 0% of inhibition is determined by using DMSO (1% final concentrations). A Labcyte Echo 555 (Labcyte, Sunnyvale, CA) is used to dispense 200 nL from each well of the titration plate to the 384 well assay plate. Human PDE9A2 membrane preps were diluted to 1 ng/ml. […] PDE9 enzyme mix and compounds were mixed and incubated at room temperature for 30 min. Following which, FAMcGMP substrate was added, shaken and incubated for an additional 60 min at room temperature. The final concentration of human PDE9 membrane preparations were 0.5 ng/ml. The final concentration of FAM-cGMP was 50 nM. After the incubation period, the enzymatic reaction was stopped by addition of binding solution (IMAP-FP, Molecular Devices, comprised of 80% Solution A, 20% Solution B and a 1:600 dilution of binding reagent) to each well. The plates were shaken then incubated at room temperature for 1 h prior to determining the fluorescence polarization (mP) using a Perkin Elmer En Vision™ plate reader (Waltham, MA).
Fluorescence polarization (mP) was calculated from the parallel(S) and perpendicular (P) fluorescence of each sample well and the analogous values for the median control well, containing only substrate (So and Po), using the following equation: […]
Dose-inhibition profiles for each compound were characterized by fitting the mP data to a four-parameter equation given below. The apparent inhibition constant (KI), the maximum inhibition at the low plateau relative to “100% Inhibition Control” (Imax; e.g. 1=>same as this control), the minimum inhibition at the high plateau relative to the “0% Inhibition Control” (Imin, e.g. 0=>same as the no drug control) and the Hill slope (nH) are determined by a non-linear least squares fitting of the mP values as a function of dose of the compound using an in-house software based on the procedures described by Mosser et al., JALA, 2003, 8:54-63, using the following equation: […]
An apparent (Km) for FAM-labeled […] of 150 nM was determined in separate experiments through simultaneous variation of substrate and selected drug concentrations.

Sequence of Human PDE9 (PDE9A2) (O76083 other isoform, or with tags, fused parts or gaps): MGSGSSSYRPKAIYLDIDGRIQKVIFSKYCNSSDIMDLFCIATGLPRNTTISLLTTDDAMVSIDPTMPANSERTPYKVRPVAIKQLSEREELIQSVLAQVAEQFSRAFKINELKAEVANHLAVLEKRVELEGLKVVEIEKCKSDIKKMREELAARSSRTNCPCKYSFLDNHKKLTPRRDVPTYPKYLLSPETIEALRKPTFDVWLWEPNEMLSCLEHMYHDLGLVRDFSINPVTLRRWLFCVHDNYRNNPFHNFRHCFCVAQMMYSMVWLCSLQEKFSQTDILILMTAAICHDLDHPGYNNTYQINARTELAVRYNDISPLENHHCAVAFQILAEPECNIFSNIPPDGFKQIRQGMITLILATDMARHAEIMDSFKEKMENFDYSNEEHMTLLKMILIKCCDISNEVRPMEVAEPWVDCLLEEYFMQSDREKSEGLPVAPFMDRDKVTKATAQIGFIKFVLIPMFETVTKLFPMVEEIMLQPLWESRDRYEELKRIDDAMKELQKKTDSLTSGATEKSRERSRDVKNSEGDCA

Row | pKi | Structure (SMILES)
1 | 9.14 | CCC(c1ncc(F)cn1)N(C)c1nc2c(c(C#N)nn2C(C)c2ccc(C3CC3)cc2)c(=O)[nH]1 (single isomer, unassigned) [Example 68, 1-[1-(4-cyclopropylphenyl)ethyl]-6-[1-(5-fluoropyrimidin-2-yl)propyl-methyl-amino]-4-oxo-5H-pyrazolo[3,4-d]pyrimidine-3-carbonitrile]
2 | 7.67 | CC(c1ccc(C(F)(F)F)nc1)n1nc(C#N)c2c(=O)[nH]c(N3CCC3c3ncccn3)nc21 (single isomer, unassigned) [Example 46, 4-oxo-6-(2-pyrimidin-2-ylazetidin-1-yl)-1-[1-[6-(trifluoromethyl)-3-pyridyl]ethyl]-5H-pyrazolo[3,4-d]pyrimidine-3-carbonitrile]
3 | 7.41 | C=CCCC(c1ncccn1)N(C)c1nc2c(c(C#N)nn2C(C)c2ccc(C(F)(F)F)nc2)c(=O)[nH]1 (single isomer, unassigned) [Example 43, 6-[methyl(1-pyrimidin-2-ylpent-4-enyl)amino]-4-oxo-1-[1-[6-(trifluoromethyl)-3-pyridyl]ethyl]-5H-pyrazolo[3,4-d]pyrimidine-3-carbonitrile]
4 | 10.70 | CCC(c1ncc(F)cn1)N(C)c1nc2c(c(C#N)nn2C(C)c2ccc(C3CC3)cc2)c(=O)[nH]1 (single isomer, unassigned) [Example 70, 1-[1-(4-cyclopropylphenyl)ethyl]-6-[1-(5-fluoropyrimidin-2-yl)propyl-methyl-amino]-4-oxo-5H-pyrazolo[3,4-d]pyrimidine-3-carbonitrile]
5 | 9.62 | CCC(Cc1nc2c(c(C#N)nn2C(C)c2ccc(C(F)(F)F)nc2)c(=O)[nH]1)c1ncccn1 (single isomer, unassigned) [Example 89, 4-oxo-6-(2-(pyrimidin-2-yl)butyl)-1-(1-(6-(trifluoromethyl)pyridin-3-yl)ethyl)-4,5-dihydro-1H-pyrazolo[3,4-d]pyrimidine-3-carbonitrile]
6 | 8.13 | CC(c1ccc(C(F)(F)F)nc1)n1nc(C#N)c2c(=O)[nH]c(N3CCC3c3ccc(F)cc3)nc21 (single isomer, unassigned) [Example 51, 6-[2-(4-fluorophenyl)azetidin-1-yl]-4-oxo-1-[1-[6-(trifluoromethyl)-3-pyridyl]ethyl]-5H-pyrazolo[3,4-d]pyrimidine-3-carbonitrile]
7 | 10.52 | CCC(c1ncc(F)cn1)N(C)c1nc2c(c(C#N)nn2C(C)c2ccc(C3CC3)nc2)c(=O)[nH]1 (single isomer, unassigned) [Example 65, 1-[1-(6-cyclopropyl-3-pyridyl)ethyl]-6-[1-(5-fluoropyrimidin-2-yl)propyl-methyl-amino]-4-oxo-5H-pyrazolo[3,4-d]pyrimidine-3-carbonitrile]
8 | 9.57 | CCC(c1ncc(F)cn1)N(C)c1nc2c(c(C#N)nn2C(C)c2ccc(C(F)(F)F)nc2)c(=O)[nH]1 (single isomer, unassigned) [Example 77, 6-((1-(5-fluoropyrimidin-2-yl)propyl)(methyl)amino)-4-oxo-1-(1-(6-(trifluoromethyl)pyridin-3-yl)ethyl)-4,5-dihydro-1H-pyrazolo[3,4-d]pyrimidine-3-carbonitrile]

The remaining lines, values behind:

Row | Structure (SMILES) | pKi
9 | CCC(c1ncccn1)N(C)c1nc2c(c(C#N)nn2C(C)c2ccc(C(F)(F)F)nc2)c(=O)[nH]1 (single isomer, unassigned) [Example 11, 6-[methyl(1-pyrimidin-2-ylpropyl)amino]-4-oxo-1-[1-[6-(trifluoromethyl)-3-pyridyl]ethyl]-5H-pyrazolo[3,4-d]pyrimidine-3-carbonitrile] | 7.61
10 | CC(c1ccc(C(F)(F)F)nc1)n1nc(C#N)c2c(=O)[nH]c(N(C)C(c3ncccn3)C3CCC3)nc21 (single isomer, unassigned) [Example 31, 6-[[cyclobutyl(pyrimidin-2-yl)methyl]-methyl-amino]-4-oxo-1-[1-[6-(trifluoromethyl)-3-pyridyl]ethyl]-5H-pyrazolo[3,4-a]pyrimidine-3-carbonitrile] | 8.92
11 | CC(c1ccc(C(F)(F)F)nc1)n1nc(C#N)c2c(=O)[nH]c(N(C)C(c3ncccn3)C3CC3)nc21 (single isomer, unassigned) [Example 25, 6-[[cyclopropyl(pyrimidin-2-yl)methyl]-methyl-amino]-4-oxo-1-[1-[6-(trifluoromethyl)-3-pyridyl]ethyl]-5H-pyrazolo[3,4-d]pyrimidine-3-carbonitrile] | 8.39
12 | CCC(c1ncccn1)N(C)c1nc2c(c(C#N)nn2C(C)c2ccc(C3CC3)nc2)c(=O)[nH]1 (single isomer, unassigned) [Example 3, 1-(1-(6-Cyclopropylpyridin-3-yl)ethyl)-6-(methyl(1-(pyrimidin-2-yl)propyl)amino)-4-oxo-4,5-dihydro-1H-pyrazolo[3,4-d]pyrimidine-3-carbonitrile] | 8.74
13 | CCC(c1ccc(F)cn1)N(C)c1nc2c(c(C#N)nn2C(C)c2ccc(C(F)(F)F)nc2)c(=O)[nH]1 (single isomer, unassigned) [Example 33, 6-[1-(5-fluoro-2-pyridyl)propyl-methyl-amino]-4-oxo-1-[1-[6-(trifluoromethyl)-3-pyridyl]ethyl]-5H-pyrazolo[3,4-d]pyrimidine-3-carbonitrile] | 9.23
14 | CC(C)C(c1ncccn1)N(C)c1nc2c(c(C#N)nn2C(C)c2ccc(C(F)(F)F)nc2)c(=O)[nH]1 (single isomer, unassigned) [Example 22, 6-[methyl-(2-methyl-1-pyrimidin-2-yl-propyl)amino]-4-oxo-1-[1-[6-(trifluoromethyl)-3-pyridyl]ethyl]-5H-pyrazolo[3,4-d]pyrimidine-3-carbonitrile] | 8.19
15 | CCC(c1ncccn1)N(C)c1nc2c(c(C#N)nn2C(C)c2ccc(C3CC3)nc2)c(=O)[nH]1 (single isomer, unassigned) [Example 2, 1-(1-(6-Cyclopropylpyridin-3-yl)ethyl)-6-(methyl(1-(pyrimidin-2-yl)propyl)amino)-4-oxo-4,5-dihydro-1H-pyrazolo[3,4-d]pyrimidine-3-carbonitrile] | 8.28
16 | CC(c1ncccn1)N(C)c1nc2c(c(C#N)nn2C(C)c2ccc(C(F)(F)F)nc2)c(=O)[nH]1 (single isomer, unassigned) [Example 7, 6-[methyl(1-pyrimidin-2-ylethyl)amino]-4-oxo-1-[1-[6-(trifluoromethyl)-3-pyridyl]ethyl]-5H-pyrazolo[3,4-d]pyrimidine-3-carbonitrile] | 7.68
17 | CCC(c1ncccn1)N(C)c1nc2c(c(C#N)nn2C(C)c2ccc(C(F)(F)F)cc2)c(=O)[nH]1 (single isomer, unassigned) [Example 13, 6-[methyl(1-pyrimidin-2-ylpropyl)amino]-4-oxo-1-[1-[4-(trifluoromethyl)phenyl]ethyl]-5H-pyrazolo[3,4-d]pyrimidine-3-carbonitrile] | 8.28
18 | CCC(c1ccc(F)cn1)N(C)c1nc2c(c(C#N)nn2C(C)c2ccc(C(F)(F)F)nc2)c(=O)[nH]1 (single isomer, unassigned) [Example 35, 6-[1-(5-fluoro-2-pyridyl)propyl-methyl-amino]-4-oxo-1-[1-[6-(trifluoromethyl)-3-pyridyl]ethyl]-5H-pyrazolo[3,4-d]pyrimidine-3-carbonitrile] | 8.15
19 | CCC(c1ncccn1)N(C)c1nc2c(c(C#N)nn2C(C)c2ccc(C(F)(F)F)cc2)c(=O)[nH]1 (single isomer, unassigned) [Example 15, 6-[methyl(1-pyrimidin-2-ylpropyl)amino]-4-oxo-1-[1-[4-(trifluoromethyl)phenyl]ethyl]-5H-pyrazolo[3,4-d]pyrimidine-3-carbonitrile] | 8.55
